In patent US12247017B2, “Herbicidal uracilpyridines” (BASF SE, priority 2019, dated 2025):

Key:
Settings in all cases: application rate 16 g/ha, post-emergence method, scale from 0 to 100
SETVI = test: greenhouse herbicidal activity, post-emergence, SETVI; assay type: in vivo, Setaria viridis
Source text: (§1) The seeds of the test plants were sown separately for each species. For the pre-emergence treatment, the active ingredients, which had been suspended or emulsified in water, were applied directly after sowing by means of finely distributing nozzles. The containers were irrigated gently to promote germination and growth and subsequently covered with transparent plastic hoods until the test plants had rooted. This cover caused uniform germination of the test plants, unless this had been impaired by the active ingredients. For the post-emergence treatment, the test plants were first grown to a height of 3 to 15 cm, depending on the plant habit, and only then treated with the active ingredients which had been suspended or emulsified in water. For this purpose, the test plants were either sown directly and grown in the same containers, or they were first grown separately as seedlings and transplanted into the test containers a few days prior to treatment. Depending on the species, the test plants were kept at 10-25° C. or 20-35° C., respectively. The test period extended over 2 to 4 weeks. During this time, the test plants were tended, and their response to the individual treatments was evaluated. Evaluation was carried out using a scale from 0 to 100. […]

AMARE = test: greenhouse herbicidal activity, post-emergence, AMARE; assay type: in vivo, Amaranthus retroflexus
Source text: as §1

ECHCG = test: greenhouse herbicidal activity, post-emergence, ECHCG; assay type: in vivo, Echinocloa crus-galli
Source text: as §1

CHEAL = test: greenhouse herbicidal activity, post-emergence, CHEAL; assay type: in vivo, Chenopodium album
Source text: as §1

Row | SMILES | herbicidal activity against SETVI (SETVI) | herbicidal activity against AMARE (AMARE) | herbicidal activity against ECHCG (ECHCG) | herbicidal activity against CHEAL (CHEAL)
1 | COC(=O)CCNC(=O)C(C)Sc1nc(-n2c(=O)cc(C(F)(F)F)n(C)c2=O)c(F)cc1Cl (stereo not shown) [Example 1, Methyl 3-[2-[[3-chloro-5-fluoro-6-[3-methyl-2,6-dioxo-4-(trifluoromethyl)pyrimidin-1-yl]-2-pyridyl]sulfanyl]propanoylamino]propanoate] | very good herbicidal activity (a very good herbicidal activity is given at values of at least 85) | very good herbicidal activity (a very good herbicidal activity is given at values of at least 85) | very good herbicidal activity (a very good herbicidal activity is given at values of at least 85) | very good herbicidal activity (a very good herbicidal activity is given at values of at least 85)
2 | CCOC(=O)CCNC(=O)COc1nc(-n2c(=O)cc(C(F)(F)F)n(C)c2=O)c(F)cc1Cl [Example 2] | very good herbicidal activity (a very good herbicidal activity is given at values of at least 85) | very good herbicidal activity (a very good herbicidal activity is given at values of at least 85) |  | very good herbicidal activity (a very good herbicidal activity is given at values of at least 85)
